From US7420051B2, “Synthetic process for the manufacture of an ecteinaschidin compound” (Pharma Mar, S.A., priority 2000, dated 2008)

Assays:
Format in all cases: cell-based
[1] = tested on: A-549 (monolayer culture of a human lung carcinoma); assay: Cytotoxic activity screening, A-549 cells; settings: Homo sapiens, A549, 72 h, three days of incubation, Crystal Violet, approximate IC50
Experimental: (§1) Cell Cultures. Cells were maintained in logarithmic phase of growth in Eagle's Minimum Essential Medium, with Earle's Balanced Salts, with 2.0 mM L-glutamine, with non-essential amino acids, without sodium bicarbonate (EMEM/neaa); supplemented with 10% Fetal Calf Serum (FCS), 10^−2 M sodium bicarbonate and 0.1 g/l penicillin-G+streptomycin sulfate.
(§2) A simple screening procedure has been carried out to determine and compare the antitumour activity of these compounds, using an adapted form of the method described by Bergeron et al (1984). The tumour cell line employed have been P-388 (suspension culture of a lymphoid neoplasm from DBA/2 mouse), A-549 (monolayer culture of a human lung carcinoma), HT-29 (monolayer culture of a human colon carcinoma) and MEL-28 (monolayer culture of a human melanoma).
(§3) A-549, HT-29 and MEL-28 were seeded into 16 mm wells at 2×10^4 cells per well in 1 ml aliquots of MEM 10FCS containing the indicated concentration of drug. A separate set of cultures without drug was seeded as control growth to ensure that cells remained in exponential phase of growth. All determinations were carried out in duplicate. After three days of incubation at 37° C., 10% CO2 in a 98% humid atmosphere, the wells were stained with 0.1% Crystal Violet. An approximately IC50 was determined by comparing the growth in wells with drug to the growth in wells control.

[2] = tested on: P-388 (suspension culture of a lymphoid neoplasm from DBA/2 mouse); assay: Cytotoxic activity screening, P-388 cells; settings: Mus musculus, P388, 72 h, three days of incubation, approximate IC50
Experimental: as §1, §2
P-388 cell were seeded into 16 mm wells at 1×10^4 cells per well in 1 ml aliquots of MEM 5FCS containing the indicated concentration of drug. A separate set of cultures without drug was seeded as control growth to ensure that cells remained in exponential phase of growth. All determinations were carried out in duplicate.

CV-1 = assay: Cytotoxic activity screening, CV-1 cells; settings: Cercopithecidae
[3] = tested on: MEL-28 (monolayer culture of a human melanoma); assay: Cytotoxic activity screening, MEL-28 cells; settings: SK-MEL-28, 72 h, three days of incubation, Crystal Violet, approximate IC50
Experimental: as §1, §2, §3

[4] = tested on: HT-29 (monolayer culture of a human colon carcinoma); assay: Cytotoxic activity screening, HT-29 cells; settings: Homo sapiens, HT-29, 72 h, three days of incubation, Crystal Violet, approximate IC50
Experimental: as §1, §2, §3

DU-145 = assay: Cytotoxic activity screening, DU-145 cells; settings: Homo sapiens, DU-145, DU-145 cells

| SMILES | IC50 [1] [µM] | IC50 [2] [µM] | IC50 (CV-1) [µM] | IC50 [3] [µM] | IC50 [4] [µM] | IC50 (DU-145) [µM] |
| --- | --- | --- | --- | --- | --- | --- |
| COC1=C(C)C(=O)C2=C(C1=O)[C@H](CNC(=O)C(C)N)N1C(C2)[C@H]2c3c(cc(C)c(OC)c3O)C[C@@H]([C@@H]1C#N)N2C (some centres unmarked) | 0.018 | 0.009 | 0.023 | 0.018 | 0.018 |  |
| C=CCOc1c(C)c2c(c3c1CC1[C@H]4c5c(cc(C)c(OC)c5O)C[C@@H]([C@H](C#N)N1[C@H]3CNC(=O)OCC(Cl)(Cl)Cl)N4C)OCO2 (some centres unmarked) |  |  | 0.014 |  |  | 0.014 |
| C=CCOc1c(C)c2c(c3c1CC1[C@H]4c5c(cc(C)c(OC)c5OCOC)C[C@@H]([C@H](C#N)N1[C@H]3CNC(=O)OCC(Cl)(Cl)Cl)N4C)OCO2 (some centres unmarked) |  |  | 0.13 |  |  | 0.13 |
| COCOc1c(OC)c(C)cc2c1[C@@H]1C3Cc4c(OC(C)=O)c(C)c5c(c4[C@H](CNC(=O)[C@H](C)NC(=O)OC(C)(C)C)N3[C@@H](C#N)[C@H](C2)N1C)OCO5 (some centres unmarked) | 0.13 | 0.13 |  | 0.13 | 0.13 | 0.13 |
| COc1c(C)cc2c(c1O)[C@@H]1C3Cc4c(OC(C)=O)c(C)c5c(c4[C@H](CNC(=O)[C@H](C)N)N3[C@@H](C#N)[C@H](C2)N1C)OCO5 (some centres unmarked) | 0.016 | 0.008 |  | 0.008 | 0.008 | 0.016 |
| COc1c(C)cc2c(c1O)[C@@H]1C3Cc4c(OC(C)=O)c(C)c5c(c4[C@H](CNC(=O)[C@H](C)NC(=S)Nc4ccccc4)N3[C@@H](C#N)[C@H](C2)N1C)OCO5 (some centres unmarked) | 0.001 | 0.001 |  | 0.001 | 0.001 | 0.001 |
| COc1c(C)cc2c(c1O)[C@@H]1C3Cc4c(OC(C)=O)c(C)c5c(c4[C@H](CN)N3[C@@H](C#N)[C@H](C2)N1C)OCO5 (some centres unmarked) | 0.01 | 0.01 |  | 0.01 | 0.01 | 0.01 |
| COC1=C(C)C(=O)C2=C(C1=O)[C@H](CNC(=O)C(C)N=CSNc1ccccc1)N1C(C2)[C@H]2c3c(cc(C)c(OC)c3O)C[C@@H]([C@@H]1C#N)N2C (some centres unmarked) | 0.015 | 0.015 | 0.018 | 0.015 | 0.015 |  |
| COCOc1c(OC)c(C)cc2c1[C@@H]1C3CC4=C(C(=O)C(OC)=C(C)C4=O)[C@H](CNC(C)=O)N3[C@@H](C#N)[C@H](C2)N1C (some centres unmarked) |  |  | 0.22 |  |  |  |
| COCOc1c(OC)c(C)cc2c1[C@@H]1C3CC4=C(C(=O)C(O)=C(C)C4=O)[C@H](CNC(C)=O)N3[C@@H](C#N)[C@H](C2)N1C (some centres unmarked) | > 18.1 | > 9 | > 18.1 | > 18.1 | > 18.1 |  |
| COCOc1c(OC)c(C)cc2c1[C@@H]1C3Cc4c(O)c(C)c5c(c4[C@H](CNC(C)=O)N3[C@@H](C#N)[C@H](C2)N1C)OCO5 (some centres unmarked) | > 1.77 | > 1.77 |  | > 1.77 | > 1.77 | > 1.77 |
| C=CCOc1c(C)c2c(c3c1CC1[C@H]4c5c(cc(C)c(OC)c5OCOC)C[C@@H]([C@H](C#N)N1[C@H]3CNC(C)=O)N4C)OCO2 (some centres unmarked) | > 1.65 | > 1.65 |  | > 1.65 | > 1.65 | > 1.65 |
| COCOc1c(OC)c(C)cc2c1[C@@H]1C3Cc4c(OC(C)=O)c(C)c5c(c4[C@H](CNC(C)=O)N3[C@@H](C#N)[C@H](C2)N1C)OCO5 (some centres unmarked) | 0.016 | 0.016 |  | 0.016 | 0.016 | 0.016 |
| COc1c(C)cc2c(c1O)[C@@H]1C3Cc4c(OC(C)=O)c(C)c5c(c4[C@H](CNC(C)=O)N3[C@@H](C#N)[C@H](C2)N1C)OCO5 (some centres unmarked) | 0.001 | 0.001 |  | 0.001 | 0.001 | 0.001 |
| C/C=C(\OC(C)=O)C1=C(C2=COCO2)[C@H](CNC(=O)CCCC)N2C(C1)[C@H]1c3c(cc(C)c(OC)c3O)C[C@@H]([C@@H]2C#N)N1C (some centres unmarked) | 0.007 | 0.007 |  | 0.007 | 0.007 | 0.007 |
